From patent US6362216B1, “Compounds which inhibit tryptase activity” (Array Biopharma Inc., priority 1998, dated 2002)

Tests used:
Format in all cases: biochemical
[1] = molecular target: T1, Human Neutrophil Cathepsin G (Homo sapiens, UniProt P08311); assay: Human neutrophil cathepsin G inhibition, N-Suc-Ala-Ala-Pro-Phe-pNA substrate; details: 625 mM Tris-HCl, pH 7.5, 2.5 mM MgCl2, 0.125% Brij 35
T1 construct: from tissue; host or cells: human neutrophils
T1 sequence (P08311 21-244): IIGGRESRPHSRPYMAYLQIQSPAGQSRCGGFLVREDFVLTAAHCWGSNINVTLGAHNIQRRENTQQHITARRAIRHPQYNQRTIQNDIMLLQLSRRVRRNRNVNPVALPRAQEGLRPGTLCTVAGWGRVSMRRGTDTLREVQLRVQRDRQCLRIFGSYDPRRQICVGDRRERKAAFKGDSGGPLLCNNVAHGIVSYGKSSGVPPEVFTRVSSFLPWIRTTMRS
Procedure: (§1) Protease inhibition was assayed according to published procedures with minor modifications using various proteases and specific chromogenic peptide p-nitroanilide substrates. Assays were performed in Costar ultra-low cluster 96-well microtiter plate (Costar Corning Corp., Cambridge Mass.). Each protease was incubated with various concentrations of the test compound for 15 min. at 37° C. or as otherwise indicated, in specific assay buffer, and the residual activity was then measured by addition of the substrate. p-Nitroaniline produced by the proteolysis was determined by measuring the change in absorbance at 405 nm on a SpectraMAX 340 plate reader (Molecular devices, Sunnyvale, Calif.).
(§2) 1. The inhibition constant, Ki is calculated from individual data points using the equation for a tight-binding inhibitor (See Beith, “Proteinase Inhibitors-Proceedings of 2nd Int. Res. Conference”, Fritz, et al. eds., New York, p.4463-4469 (1974)):
(§3) The Ki values are obtained by correcting Ki ′ values for the effect of substrate concentration according to: [formula]
(§4) 2. Other inhibition data (Ki>>[E]o), the Ki is calculated from using the equations for a competitive inhibitor: [formula] […]
Human Neutrophil Cathepsin G activity was determined by using N-Suc-Ala-Ala-Pro-Phe-pNA in 625 mM Tris-HCl, pH 7.5, 2.5 mM MgCl2, 0.125% Brij 35 (See Groutas et al., Arch. Biochem. Biophys. 294, 144-146 (1992)). […]

[2] = molecular target: T2, Human Neutrophil elastase (Homo sapiens, UniProt P08246); assay: Human neutrophil elastase inhibition, pyroGlu-Pro-Val-pNA substrate; details: 100 mM Tris-HCl, pH 8.3, 0.96 M NaCl, 1% BSA
T2 construct: from tissue; host or cells: human neutrophils
T2 sequence (P08246 30-267): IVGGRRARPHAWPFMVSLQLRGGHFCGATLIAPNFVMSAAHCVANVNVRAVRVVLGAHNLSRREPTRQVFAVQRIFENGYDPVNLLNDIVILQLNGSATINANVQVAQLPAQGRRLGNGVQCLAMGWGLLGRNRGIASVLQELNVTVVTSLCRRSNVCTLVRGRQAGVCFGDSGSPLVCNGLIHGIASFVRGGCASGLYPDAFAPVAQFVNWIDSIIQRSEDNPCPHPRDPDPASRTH
Procedure: as §1
(§5) 1. The inhibition constant, Ki is calculated from individual data points using the equation for a tight-binding inhibitor (See Beith, “Proteinase Inhibitors-Proceedings of 2nd Int. Res. Conference”, Fritz, et al. eds., New York, p.4463-4469 (1974)): […]
as §4
Human Neutrophil elastase activity was determined by using pyroGlu-Pro-Val-pNA in 100 mM Tris-HCl, pH 8.3, 0.96 M NaCl, 1% BSA (See Kramps, et al. Scand. J. Clin. Lab. Invest. 43, 427-432 (1983)).
(§6) The inhibition constant (Ki) of the test compounds against each proteolytic enzyme was determined according to Zitnik et al., Biochem. Biophys. […]

Human plasma thrombin = molecular target: T3, Human plasma thrombin (Homo sapiens, UniProt P00734); assay: Human plasma thrombin inhibition, H-D-Phe-Pip-Arg-pNA substrate; details: the 5th table, unit inferred
T3 construct: from tissue; host or cells: human plasma
Procedure: as §1, §2, §3
(§7) 2. Other inhibition data (Ki>>[E]o), the Ki is calculated from using the equations for a competitive inhibitor: [formula]
Human plasma thrombin activity was determined by using H-D-Phe-Pip-Arg-pNA in 50 mM Tris-HCl, pH 8.3, 100 mM NaCl, 1% BSA (See Lottenberg, et al., Meth. Enzymol. 80, 341-361 (1981)).
The inhibition constant (Ki) of the test compounds against each proteolytic enzyme was determined according to Zitnik et al., Biochem. Biophys. Res. Commun. 232, 687-697 (1997)).

Human plasma plasmin = molecular target: T4, Human plasma plasmin (Homo sapiens, UniProt P00747); assay: Human plasma plasmin inhibition, Tosyl-Gly-Pro-Lys-pNA substrate; details: 100 mM Tris-HCl, pH 7.4, 100 mM NaCl, 0.05% Triton X-100
T4 construct: from tissue; host or cells: human plasma
T4 sequence (P00747 581-810 limits assumed): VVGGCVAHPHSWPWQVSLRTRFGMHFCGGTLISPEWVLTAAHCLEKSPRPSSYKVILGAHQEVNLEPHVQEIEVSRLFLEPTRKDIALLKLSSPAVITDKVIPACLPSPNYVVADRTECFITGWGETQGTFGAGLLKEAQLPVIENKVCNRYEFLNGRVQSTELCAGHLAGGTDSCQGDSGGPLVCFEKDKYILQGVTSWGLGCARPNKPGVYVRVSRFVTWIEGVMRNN
T4 sequence (P00747 97-580 partner limits assumed): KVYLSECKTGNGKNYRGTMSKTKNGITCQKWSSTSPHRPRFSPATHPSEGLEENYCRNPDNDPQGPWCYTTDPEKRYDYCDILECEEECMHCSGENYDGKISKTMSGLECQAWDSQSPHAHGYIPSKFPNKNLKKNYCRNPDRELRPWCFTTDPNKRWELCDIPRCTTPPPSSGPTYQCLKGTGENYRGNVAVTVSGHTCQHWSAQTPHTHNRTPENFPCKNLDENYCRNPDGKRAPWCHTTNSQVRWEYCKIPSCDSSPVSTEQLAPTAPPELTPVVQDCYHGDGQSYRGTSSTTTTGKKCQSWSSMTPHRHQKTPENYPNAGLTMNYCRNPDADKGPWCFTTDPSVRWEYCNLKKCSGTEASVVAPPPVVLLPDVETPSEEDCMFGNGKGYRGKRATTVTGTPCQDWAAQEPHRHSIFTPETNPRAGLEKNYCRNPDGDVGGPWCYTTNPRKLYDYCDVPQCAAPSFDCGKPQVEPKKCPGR
Procedure: as §1, §5, §7
Human plasma plasmin activity was determined by using Tosyl-Gly-Pro-Lys-pNA in 100 mM Tris-HCl, pH 7.4, 100 mM NaCl, 0.05% Triton X-100 (See Lottenberg, et al., Meth. Enzymol. 80, 341-361 (1981)).
as §6

**Q.** How did the Ki [1] turn out when `Cc1cc2cc(CNC(=O)Cc3cc4cc(C(=N)N)ccc4s3)ccc2[nH]1` [drawing 17 Benzthiophene 5-carboxamidine n=1] was run?
**A.** > 100 µM

**Q.** What about the Ki [2] of the same compound?
**A.** > 100 µM

**Q.** What about the Ki (Human plasma thrombin) of the same compound?
**A.** 25.8 µM

**Q.** What about the Ki (Human plasma plasmin) of the same compound?
**A.** 2700 nM
